Patent publication US11214594B2, “Antimicrobial peptide having synergistic antibacterial effect with antibiotics on multidrug resistant bacteria, and use thereof” (priority 2016, dated 2022)
≈ marks a conversion by molar mass, not a printed value. Where a SMILES comes first, the peptide text is derived from it.

Key:
E. coli [1] = experiment: microbe, parasite or virus in culture; format: cell-based, Escherichia coli; conditions: 16 h
In short: (§1)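 MIC read-out = lowest peptide level with no bacterial proliferation. Strains diluted in MH medium to 2×10^6 CFU; peptide twofold serial dilutions in MH added 1:1 in microtiter wells.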

P. aeruginosa = experiment: microbe, parasite or virus in culture; format: cell-based, Pseudomonas aeruginosa
In short: as §1

MDRAB 12035 = experiment: MIC of antibiotic during combined treatment with antimicrobial peptide; format: cell-based, Acinetobacter baumannii
In short: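 Broth microdilution in MH medium; strains were diluted to 2×10^6 CFU per ml before plating. Peptide was serially diluted stepwise at 2:1 starting from its MIC, and MH-diluted antibiotic was then added to determine MIC. The reversed arrangement was also tested.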

E. coli [2] = experiment: as above; format: cell-based, Escherichia coli; conditions: for Antibiotic MIC, Erythromycin / Antibiotic MIC, Linezolid / Antibiotic MIC, Vancomycin: E. coli
In short: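 Using MH broth, we determined combination MICs by titrating the antibiotic into wells and then repeating under the reverse dilution scheme.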

[3] = peptide treatment concentration 1 μg/ml
[4] = peptide treatment concentration 2 μg/ml
[5] = peptide treatment concentration 4 μg/ml
[6] = peptide treatment concentration 6 μg/ml
[7] = peptide treatment concentration 8 μg/ml
[8] = peptide treatment concentration 16 μg/ml
[9] = peptide treatment concentration 32 μg/ml
[10] = peptide treatment concentration 64 μg/ml

For `CC[C@H](C)[C@H](NC(=O)[C@H](CCCCN)NC(=O)[C@H](Cc1c[nH]c2ccccc12)NC(=O)[C@@H](N)CCCNC(=N)N)C(=O)N[C@@H](Cc1ccccc1)C(=O)N[C@@H](CCCCN)C(=O)N[C@@H](CCCCN)C(=O)N[C@H](C(=O)N1CCC[C@H]1C(=O)N[C@@H](CCCCN)C(=O)N[C@@H](Cc1ccccc1)C(=O)N[C@@H](CC(C)C)C(=O)N[C@@H](Cc1c[nH]cn1)C(=O)N[C@@H](CCC(=O)O)C(=O)N[C@@H](C)C(=O)N[C@@H](CCCCN)C(=O)N[C@@H](CCCCN)C(=O)N[C@@H](Cc1ccccc1)C(N)=O)[C@@H](C)CC` [PapMA-11, RWK IFK KIP KFL HEA KKF-NH2] (H-RWKIFKKIPKFLHEAKKF-NH2; N-terminus assumed), the “Minimal inhibitory concentration MIC” value (E. coli [1]) was 64 µg/mL (≈ 27.3 µM), the “Minimal inhibitory concentration MIC” value (P. aeruginosa) was 128 µg/mL (≈ 54.6 µM) and the “Erythromycin MIC during combined treatment with peptide” value (MDRAB 12035; [3]) was 32 µg/mL. For the same compound, the “Linezolid MIC during combined treatment with peptide” value (MDRAB 12035; [3]) was over 128 µg/mL, the “Vancomycin MIC during combined treatment with peptide” value (MDRAB 12035; [3]) was over 128 µg/mL and the “Erythromycin MIC during combined treatment with peptide” value (MDRAB 12035; [4]) was 16 µg/mL. For the same compound, the “Linezolid MIC during combined treatment with peptide” value (MDRAB 12035; [4]) was 128 µg/mL, the “Vancomycin MIC during combined treatment with peptide” value (MDRAB 12035; [4]) was 128 µg/mL and the “Erythromycin MIC during combined treatment with peptide” value (MDRAB 12035; [5]) was 8 µg/mL. For the same compound, the “Linezolid MIC during combined treatment with peptide” value (MDRAB 12035; [5]) was 64 µg/mL, the “Vancomycin MIC during combined treatment with peptide” value (MDRAB 12035; [5]) was 64 µg/mL and the “Erythromycin MIC during combined treatment with peptide” value (MDRAB 12035; [6]) was 2 µg/mL. For the same compound, the “Linezolid MIC during combined treatment with peptide” value (MDRAB 12035; [6]) was 32 µg/mL, the “Vancomycin MIC during combined treatment with peptide” value (MDRAB 12035; [6]) was 32 µg/mL and the “Erythromycin MIC during combined treatment with peptide” value (MDRAB 12035; [7]) was 1 µg/mL. For the same compound, the “Linezolid MIC during combined treatment with peptide” value (MDRAB 12035; [7]) was 16 µg/mL, the “Vancomycin MIC during combined treatment with peptide” value (MDRAB 12035; [7]) was 32 µg/mL and the “Erythromycin MIC during combined treatment with peptide” value (MDRAB 12035; [8]) was 0.5 µg/mL. For the same compound, the “Linezolid MIC during combined treatment with peptide” value (MDRAB 12035; [8]) was 8 µg/mL, the “Vancomycin MIC during combined treatment with peptide” value (MDRAB 12035; [8]) was 16 µg/mL and the “Erythromycin MIC during combined treatment with peptide” value (MDRAB 12035; [9]) was 0.125 µg/mL. For the same compound, the “Linezolid MIC during combined treatment with peptide” value (MDRAB 12035; [9]) was 2 µg/mL, the “Vancomycin MIC during combined treatment with peptide” value (MDRAB 12035; [9]) was 4 µg/mL and the “Erythromycin MIC during combined treatment with peptide” value (MDRAB 12035; [10]) was 0 µg/mL. For the same compound, the “Linezolid MIC during combined treatment with peptide” value (MDRAB 12035; [10]) was 0 µg/mL, the “Vancomycin MIC during combined treatment with peptide” value (MDRAB 12035; [10]) was 0 µg/mL and the “Synergistic effect of antibacterial activity with existing antibiotics compared with PapMA-1” value (E. coli [2]; E. coli and MDREC1229) was “level similar to that of the PapMA-1 peptide”. The “Antibiotic MIC, Erythromycin” value (E. coli [2]; erythromycin combined with peptide at 1 μg/ml) was 64 µg/mL, the “Antibiotic MIC, Erythromycin” value (E. coli [2]; erythromycin combined with peptide at 2 μg/ml) was 64 µg/mL and the “Antibiotic MIC, Erythromycin” value (E. coli [2]; erythromycin combined with peptide at 4 μg/ml) was 16 µg/mL. The “Antibiotic MIC, Erythromycin” value (E. coli [2]; erythromycin combined with peptide at 6 μg/ml) was 4 µg/mL, the “Antibiotic MIC, Erythromycin” value (E. coli [2]; erythromycin combined with peptide at 8 μg/ml) was 1 µg/mL and the “Antibiotic MIC, Erythromycin” value (E. coli [2]; erythromycin combined with peptide at 16 μg/ml) was 0.25 µg/mL. For the same compound, the “Antibiotic MIC, Erythromycin” value (E. coli [2]; erythromycin combined with peptide at 32 μg/ml) was 0.125 µg/mL, the “Antibiotic MIC, Erythromycin” value (E. coli [2]; erythromycin combined with peptide at 64 μg/ml) was 0 µg/mL and the “Antibiotic MIC, Linezolid” value (E. coli [2]; linezolid combined with peptide at 1 μg/ml) was over 128 µg/mL. For the same compound, the “Antibiotic MIC, Linezolid” value (E. coli [2]; linezolid combined with peptide at 2 μg/ml) was 128 µg/mL, the “Antibiotic MIC, Linezolid” value (E. coli [2]; linezolid combined with peptide at 4 μg/ml) was 128 µg/mL and the “Antibiotic MIC, Linezolid” value (E. coli [2]; linezolid combined with peptide at 6 μg/ml) was 32 µg/mL. For the same compound, the “Antibiotic MIC, Linezolid” value (E. coli [2]; linezolid combined with peptide at 8 μg/ml) was 32 µg/mL, the “Antibiotic MIC, Linezolid” value (E. coli [2]; linezolid combined with peptide at 16 μg/ml) was 16 µg/mL and the “Antibiotic MIC, Linezolid” value (E. coli [2]; linezolid combined with peptide at 32 μg/ml) was 8 µg/mL. The “Antibiotic MIC, Linezolid” value (E. coli [2]; linezolid combined with peptide at 64 μg/ml) was 0 µg/mL, the “Antibiotic MIC, Vancomycin” value (E. coli [2]; vancomycin combined with peptide at 1 μg/ml) was over 128 µg/mL and the “Antibiotic MIC, Vancomycin” value (E. coli [2]; vancomycin combined with peptide at 2 μg/ml) was over 128 µg/mL. For the same compound, the “Antibiotic MIC, Vancomycin” value (E. coli [2]; vancomycin combined with peptide at 4 μg/ml) was over 128 µg/mL, the “Antibiotic MIC, Vancomycin” value (E. coli [2]; vancomycin combined with peptide at 6 μg/ml) was 32 µg/mL and the “Antibiotic MIC, Vancomycin” value (E. coli [2]; vancomycin combined with peptide at 8 μg/ml) was 16 µg/mL. For the same compound, the “Antibiotic MIC, Vancomycin” value (E. coli [2]; vancomycin combined with peptide at 16 μg/ml) was 8 µg/mL, the “Antibiotic MIC, Vancomycin” value (E. coli [2]; vancomycin combined with peptide at 32 μg/ml) was 4 µg/mL and the “Antibiotic MIC, Vancomycin” value (E. coli [2]; vancomycin combined with peptide at 64 μg/ml) was 0 µg/mL.
